This is an account of results in patent publication US6964958B2, “Method of simultaneously treating sensory auditory gating deficit and associated psychosis in schizophrenia and bipolar disorder patients with mania” (priority 2001, dated 2005).

The conditions of series [1]: FIG. 1 dose-response comparison; cited from earlier work.
Series [2] relates to benzodiazepines binding sites. Conditions: cited from earlier work.
Another series concerns patas monkeys. The settings on record: cited from earlier work.
The subject of the next series is wild-type mice (WTM). Kind of series: Prepulse inhibition of startle (PPI) in wild-type mice. The settings on record: subcutaneous, 115 db startle, 75 or 80 db prepulse. It counts as in vivo, mouse. The text has this:
(§1) The startle apparatus (SR-Lab, San Diego Instruments) consisted of a Plexiglas cylinder resting on a Plexiglas frame within a ventilated soundproof enclosure. Acoustic noise bursts were presented by. speaker 24 cm above the animal. and a piezo-electric device transduced any consequent motion (flinch) within the cylinder. Two stimulus trial types 1) 115 db startle stimulus only; or 2) 115 db stimulus preceded by a 75 or 80 db prepulse 100 msec before startle simulut onset were randomly presented with a mean intertrial interval of 20 sec. Stimuli were 30 msec in duration and were presented over a constant 65 db white noise background also present during a 5-min adaptation period.
(§2) Mean peak amplitude of the flinch response within a 200 msec window following presentation of the 115 db stimulus was calculated separately for each type of startle trial. Ratios reflecting the amount of inhibition due to the prepulse were calculated by dividing the difference between mean amplitude for startle and prepulse trials by the mean for the startle trials. PPI data are commonly presented in this ratio form to control for overall level of the startle reflex itself.
Imidazenil or alprazolam was dissolved in DMSO, combined with oil, and injected subcutaneously at a volume of 0.1 ml/10 gm of body weight. The amount of DMSO was approximately 1% of total volume. […]

In a further series the test system is GABAA receptors. The settings on record: cited from earlier work.
A further series deals with rats. The settings on record: doses up to 60-fold greater than doses producing anxiolytic and anticonvulsant actions; cited from earlier work.
Series [3] relates to heterozygous reeler mice (HRM). Kind of series: Prepulse inhibition of startle (PPI) in heterozygous reeler mice. It counts as in vivo, mouse. Conditions: for auditory PPI deficit in HRM: heterozygous reeler mice, subcutaneous, imidazenil 0.3, 0.6 mg/kg, 115 db startle, 75 or 80 db prepulse.
Description: as §1, §2
Imidazenil or alprazolam was dissolved in DMSO, combined with oil, and injected subcutaneously at a volume of 0.1 ml/10 gm of body weight. The amount of DMSO was approximately 1% of total volume. Vehicle was prepared similarly and vehicle or drug was administered in counterbalanced order using a within-subject design. Following drug administration, the mouse was placed in an isolated cage for 10-15 min before being placed in the startle apparatus. Animals were tested between 11:00 hr and 15:00 hr.

The conditions of series [4]: in nonhuman primates; cited from earlier work.

Structures are written as SMILES.

As for `NC(=O)c1ncn2c1CN=C(c1ccccc1Br)c1cc(F)ccc1-2` [imidazenil, 6-(2 bromophenyl)-8-fluoro-4H-imidazo[1,5a][1,4]benzodiazepine-3-carboxamide], the “sedation, amnesia, tolerance and dependence liability relative to doses with anxiolytic and anticonvulsant (therapeutic) actions” value in series [1] is on record as “virtually undetectable”. In addition, the “affinity for benzodiazepines binding sites” value in series [2] was “high affinity”. The “antagonism of sedative and amnestic actions of alprazolam” value in the series on patas monkeys (monkeys, doses up to 60-fold greater than doses producing anxiolytic and anticonvulsant actions) was “antagonizes the sedative and amnestic actions of alprazolam”; in the series on rats, “antagonizes the sedative and amnestic actions of alprazolam”. Also, the “tolerance to the effects during treatment” value in the series on patas monkeys (patas monkeys, seventeen day treatment) is on record as “no tolerance”. For the same compound, the “PPI of WTM” value in the series on wild-type mice (WTM) is recorded as “no primary effects on the PPI of WTM”. In the series with GABAA receptors (GABAA receptors containing alpha1 subunit), the “action on GABAA alpha1 subunit” value was “does not act on GABAA α1 subunit”. Further, the “efficacy at GABAA receptor subtypes” value in the series with GABAA receptors (at least eight subtypes of GABAA receptors tested) is listed as “partial agonist”. For the same compound, the “intensity of GABA-gated Cl- currents” value in the series on GABAA receptors is reported as “never maximizes the intensity of GABA-gated Cl^− currents”. In addition, the “overall startle level (sedative effect)” value in series [3] (doses of imidazenil (0.3, 0.6 mg/kg) that correct the PPI deficit in HRM) is given as “fail to change the overall startle level”. Moreover, in series [3], the “auditory PPI deficit in HRM” value is “corrected the auditory PPI deficit in HRM”. Besides, the “T 1/2 (clearance rate)” value in series [4] was greater than 6 h.

With `Cc1nnc2n1-c1ccc(Cl)cc1C(c1ccccc1)=NC2` [alprazolam, 8chloro-1-methyl-6-phenyl-4-[1,2,4]triazolo[4,3a][1-4]benzodiazepine, reference compound], in series [1], the “sedation, amnesia, tolerance and dependence liability relative to doses with anxiolytic and anticonvulsant (therapeutic) actions” value was “appear with doses that are very close to those that cause anxiolytic and anticonvulsant actions”. The “PPI of WTM” value with wild-type mice (WTM) is on record as “decreased PPI in WTM”. Further, in series [3], the “auditory PPI deficit in HRM” value is listed as “failed to revert the PPI deficit in HRM”.
